US7705065B2, “Photoinitiator functionalized with alkoxy groups” (Xerox Corporation, priority 2007, dated 2010)

Assay: Solubility of about 10 wt % photoinitiator in alkoxy-containing curable monomers
Assay type: physicochemical
Settings: about 10 wt % solutions in each of SR9003, SR209, SR399LV and SR454; about room temperature (approximately 22° C. to 27° C.)
Text: The following monomers were used for testing: 1) SR9003 (propoxylated neopentyl glycol diacrylate), 2) SR209 (tetraethylene glycol dimethacrylate), 3) SR399LV (low viscosity dipentaerythritol pentacrylate esters), and 4) SR454 (ethoxylated trimethylolpropane triacrylate esters).

CC(C)(O)C(=O)c1ccc(OCCO)cc1 [IRGACURE® 2959, 4-(2-hydroxyethyloxy)phenyl-(2-hydroxy-2-propyl) ketone]
solubility in monomers: insoluble
